Where two headings read alike, the source gives them in different places. Values belong to the molecule of their own block, whether it stands above or below them.
How the values were obtained:
[1] = biological target: T1, human FXR (NR1H4) (Homo sapiens, UniProt Q96RI1); assay: Human FXR (NR1H4) agonist assessment, FXRE-NanoLuc reporter in HEK293T cells; assay type: cell-based; details: for EC50: read-out: EC50
T1 sequence (Q96RI1 1-476 isoform Q96RI1-1): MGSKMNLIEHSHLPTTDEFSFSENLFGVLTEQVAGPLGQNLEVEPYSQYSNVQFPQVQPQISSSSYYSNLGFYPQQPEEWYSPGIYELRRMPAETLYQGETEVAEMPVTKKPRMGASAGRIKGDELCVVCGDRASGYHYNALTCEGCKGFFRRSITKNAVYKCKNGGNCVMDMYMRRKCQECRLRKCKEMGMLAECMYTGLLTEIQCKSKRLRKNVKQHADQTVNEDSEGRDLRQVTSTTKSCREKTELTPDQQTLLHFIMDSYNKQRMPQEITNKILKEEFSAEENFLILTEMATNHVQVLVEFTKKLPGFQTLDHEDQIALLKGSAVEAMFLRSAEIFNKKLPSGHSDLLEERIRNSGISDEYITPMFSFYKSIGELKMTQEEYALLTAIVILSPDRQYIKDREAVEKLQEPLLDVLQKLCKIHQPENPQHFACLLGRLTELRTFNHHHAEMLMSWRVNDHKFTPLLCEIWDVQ
Protocol: As those skilled in the art appreciate, various technologies are available for assessment of FXR activation in accordance with the present disclosure. […] Human FXR (NR1H4) agonist assessment (see, e.g., Yu et al. eLife 2019; 8: e48431): HEK293T cells stably expressing human FXR and containing FXR response element (FXRE)-NanoLuc reporter were cultured in DMEM medium supplemented with 10% FBS and 1% PS, at 37° C. in a humidified atmosphere with 5% CO2. Cells were detached by centrifuging (1000 rpm, 3 min). The pellet was re-suspended in medium, and cell density was adjusted to about 1×10^6 cells/mL. 100 μL suspension was seeded to each well of a white-walled, clear-bottom 96-well microplates (cell plate). Cells in microplates were cultured overnight.
In the following day, cells were grown to higher than 95% density in each well. Culture medium was replaced, and compounds were added to the wells. 0.01% DMSO (v/v) served as negative control. Plates were incubated at 37° C. in 5% CO2 for 24 hr.
In the following day, a 10 μL aliquot of cell culture medium was removed from each well and combined with 40 μL culture medium plus […] assay buffer (containing 20 mM of the luciferase substrate coelenterazine). After 5 min incubation, luminescence was measured using an EnVision plate reader (PerkinElmer).
In some embodiments, gradient diluted solutions of several concentrations were used to treat cells and corresponding responses were used to fit sigmoid function and to derive EC50 in Origin.

[2] = biological target: MRGPRX4 (Homo sapiens, UniProt Q96LA9); assay: MRGPRX4 activation, Fluo-8 Ca2+ FLIPR assay in HEK293T cells stably expressing MRGPRX4; assay type: cell-based; details: for EC50: MRGPRX4 activation, Ca2+ fluorescence
Protocol: In some embodiments, cells were cultured in poly-D-Lys coated blacked walled, clear-bottom 96-well microplates. HEK293T cells stably expressing MRGPRX4 were cultured in DMEM medium supplemented with 10% FBS and 1% PS, at 37° C. in a humidified atmosphere with 5% CO2. Cells were detached by centrifuging (1000 rpm, 3 min). The pellet was re-suspended in medium, and cell density was adjusted to about 1×10^6 cells/mL. 100 μL suspension was seeded to each well of a microplates (cell plate). Cells in the microplates were cultured overnight. In the following day, cells were grown to higher than 95% density in each well.
Ca^2+ fluorescent dye loading: Fluo-8 AM (Screen Quest Fluo-8 AM Calcium Assay Kit, AAT Bioquest, cat. #: 21083) was diluted in HHBS buffer and adjusted to 2 μM (dye buffer). Medium in each well was changed into 50 μL dye buffer carefully. After incubation for 40-60 min under room temperature, the dye buffer was changed into 50 μL HHBS buffer.
The concentration of solution should be determined according to the protocol settings and experimental needs (e.g., Log[M]=−4, −5, −6, −7, −8, and −9). Prepare 2× serial dilution series of compounds (at least 75 μL per well).
A fluorescent signal baseline was measured using FLIPR®Tetra for 30 s. Then 50 μL of the chemical solution would be added to the cell plate. The fluorescent signal would be measured for another 150 s.
Activity of each compound was calculated by the fluorescence change (dF/F0). Curves were fitted to obtain EC50 values. In some embodiments, at least 3 repeats were performed to obtain the average values. For assessment of a compound, gradient diluted solutions of different concentrations were used to treat cells and corresponding responses were used to fit sigmoid function and to derive EC50 in Origin. In some embodiments, assessed concentrations were or included about 10^−4, 10^−4.5, 10^−5, 10^−5.5, 10^−6, 10^−6.5, 10^−7, 10^−8, and/or 10^−9 M; for example, in many instances, assessed concentrations included about 10^−5, 10^−6, 10^−7 and 10^−8 M. In some embodiments, assessed concentrations were about 10^−4, 10^−4.5, 10^−5, 10^−5.5, 10^−6, 10^−7, 10^−8, and 10^−9 M. In some embodiments, assessed concentrations were about 10^−4, 10^−5, 10^−6, 10^−7, 10^−8, and 10^−9 M. In some embodiments, assessed concentrations were about 10^−4, 10^−4.5, 10^−5, 10^−5.5, 10^−6, and 10^−7 M. In some embodiments, assessed concentrations were about 2000000, 1000000, 500000, 250000, 125000, 62500, 31250, 15625, 7813, 3906 nM. […] In some embodiments, assessed concentrations were about 30000, 10000, 3333, 1111, 370, 123, 41, 14, 4.6, 1.5 nM.

[3] = FXR activation, HEK293T FXRE-NanoLuc reporter, 24 hr

MRGPRX4, sequence (Q96LA9 whole entry): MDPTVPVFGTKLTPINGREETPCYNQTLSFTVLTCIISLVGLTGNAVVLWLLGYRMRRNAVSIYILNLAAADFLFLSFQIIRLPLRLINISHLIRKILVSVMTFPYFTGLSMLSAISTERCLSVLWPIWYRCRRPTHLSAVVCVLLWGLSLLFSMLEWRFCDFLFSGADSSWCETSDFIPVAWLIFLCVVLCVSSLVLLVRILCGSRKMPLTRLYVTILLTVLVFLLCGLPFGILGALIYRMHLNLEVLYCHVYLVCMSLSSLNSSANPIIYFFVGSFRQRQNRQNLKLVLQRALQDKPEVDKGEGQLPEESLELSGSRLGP

SMILES: CC[C@H]1[C@@H](O)[C@@H]2[C@H](CC[C@]3(C)[C@@H]([C@H](C)CCNC(=O)NS(=O)(=O)c4ccc(C(C)(C)C(=O)OC)cc4)CC[C@@H]23)[C@@]2(C)CCCC[C@@H]12 [5-9]
Efficacy (maximum measured induction of NanoLuc, normalized to CDCA set as 100%) [1, 3]: B (300%<efficacy <=400%) | EC50 [1, 3]: < 1000 nM

SMILES: CC[C@H]1[C@@H](O)[C@@H]2[C@H](CC[C@]3(C)[C@@H]([C@H](C)CCNC(=O)NS(=O)(=O)c4ccc(C(F)(F)F)cc4)CC[C@@H]23)[C@@]2(C)CCCC[C@@H]12 [5-19]
Efficacy (maximum measured induction of NanoLuc, normalized to CDCA set as 100%) [1, 3]: C (100%<efficacy <=300%) | EC50 [1, 3]: < 1000 nM

SMILES: CC[C@H]1[C@@H](O)[C@@H]2[C@H](CC[C@]3(C)[C@@H]([C@H](C)CCNC(=O)NS(=O)(=O)C[C@]45CCC(CC4=O)C5(C)C)CC[C@@H]23)[C@@]2(C)CCCC[C@@H]12 [5-27]
Efficacy (maximum measured induction of NanoLuc, normalized to CDCA set as 100%) [1, 3]: A (efficacy >400%) | EC50 [1, 3]: < 1000 nM

SMILES: CC[C@H]1[C@@H](O)[C@@H]2[C@H](CC[C@]3(C)[C@@H]([C@H](C)CCN)CC[C@@H]23)[C@@]2(C)CCCC[C@@H]12 [6-1]
Efficacy (maximum measured induction of NanoLuc, normalized to CDCA set as 100%) [1, 3]: B (300%<efficacy <=400%) | EC50 [1, 3]: < 1000 nM

SMILES: CC[C@H]1[C@@H](O)[C@@H]2[C@H](CC[C@]3(C)[C@@H]([C@H](C)CCNC(=S)NS(=O)(=O)c4ccc(C(C)(C)CF)cc4)CC[C@@H]23)[C@@]2(C)CCCC[C@@H]12 [7-2]
Efficacy (maximum measured induction of NanoLuc, normalized to CDCA set as 100%) [1]: B (key: A: efficacy >400%; B: 300%<efficacy <=400%; C: 100%<efficacy <=300%; D: efficacy <=100%) | EC50 [1, 3]: < 1000 nM

SMILES: CC[C@H]1[C@@H](O)[C@@H]2[C@H](CC[C@]3(C)[C@@H]([C@H](C)CCNC(=S)NS(=O)(=O)c4cccs4)CC[C@@H]23)[C@@]2(C)CCCC[C@@H]12 [7-3]
Efficacy (maximum measured induction of NanoLuc, normalized to CDCA set as 100%) [1]: C (key: A: efficacy >400%; B: 300%<efficacy <=400%; C: 100%<efficacy <=300%; D: efficacy <=100%) | EC50 [1, 3]: < 1000 nM

SMILES: CC[C@H]1[C@@H](O)[C@@H]2[C@H](CC[C@]3(C)[C@@H]([C@H](C)CCNC(=O)C(=O)O)CC[C@@H]23)[C@@]2(C)CCCC[C@@H]12 [8-1]
Efficacy (maximum measured induction of NanoLuc, normalized to CDCA set as 100%) [1, 3]: B (300%<efficacy <=400%) | EC50 [1, 3]: 1000 to 10000 nM

MRGPRX4 activation, fluorescence change (dF/F0), Average ([2]; Conc. (Log[M]) −4): 1.098 | MRGPRX4 activation, fluorescence change (dF/F0), Average ([2]; Conc. (Log[M]) −4.5): 0.586 | MRGPRX4 activation, fluorescence change (dF/F0), Average ([2]; Conc. (Log[M]) −5): 0.082 | MRGPRX4 activation, fluorescence change (dF/F0), Average ([2]; Conc. (Log[M]) −5.5): −0.017 | MRGPRX4 activation, fluorescence change (dF/F0), Average ([2]; Conc. (Log[M]) −6): −0.057 | MRGPRX4 activation, fluorescence change (dF/F0), Average ([2]; Conc. (Log[M]) −7): −0.044 | MRGPRX4 activation, fluorescence change (dF/F0), Average ([2]; Conc. (Log[M]) −8): −0.049 | MRGPRX4 activation, fluorescence change (dF/F0), Average ([2]; Conc. (Log[M]) −9): −0.070
SMILES: C[C@H](CCC(=O)O)[C@H]1CC[C@H]2[C@@H]3[C@H](O)C[C@@H]4C[C@H](O)CC[C@]4(C)[C@H]3CC[C@]12C [CDCA, chenodeoxycholic acid, reference compound]

Activation (%) ([2]; E3-8-1, 5 nM, n = 1): 1.93% | Activation (%) ([2]; E3-8-1, 5 nM, n = 2): 0.08% | Activation (%) ([2]; E3-8-1, 15 nM, n = 1): 1.01% | Activation (%) ([2]; E3-8-1, 15 nM, n = 2): 0.39% | Activation (%) ([2]; E3-8-1, 46 nM, n = 1): 2.24% | Activation (%) ([2]; E3-8-1, 46 nM, n = 2): 0.70% | Activation (%) ([2]; E3-8-1, 412 nM, n = 1): 3.48% | Activation (%) ([2]; E3-8-1, 412 nM, n = 2): 0.70% | Activation (%) ([2]; E3-8-1, 1235 nM, n = 1): 14.9% | Activation (%) ([2]; E3-8-1, 1235 nM, n = 2): 6.58% | Activation (%) ([2]; E3-8-1, 3704 nM, n = 1): 37.5% | Activation (%) ([2]; E3-8-1, 3704 nM, n = 2): 30.1% | Activation (%) ([2]; E3-8-1, 11111 nM, n = 1): 73.8% | Activation (%) ([2]; E3-8-1, 11111 nM, n = 2): 56.4% | Activation (%) ([2]; E3-8-1, 33333 nM, n = 1): 95.1% | Activation (%) ([2]; E3-8-1, 33333 nM, n = 2): 98.5% | Activation (%) ([2]; E3-8-1, 100000 nM, n = 1): 96.4% | Activation (%) ([2]; E3-8-1, 100000 nM, n = 2): 107.2%
SMILES: C[C@H](CCC(=O)O)[C@H]1CC[C@H]2[C@@H]3CC[C@@H]4C[C@H](O)CC[C@]4(C)[C@H]3C[C@H](O)[C@]12C [DCA, deoxycholic acid, reference compound]

Activation (%) ([2]; E3-8-1, 3906 nM, n = 1): 3.48% | Activation (%) ([2]; E3-8-1, 3906 nM, n = 2): 4.41% | Activation (%) ([2]; E3-8-1, 7813 nM, n = 1): 3.48% | Activation (%) ([2]; E3-8-1, 7813 nM, n = 2): 4.10% | Activation (%) ([2]; E3-8-1, 15625 nM, n = 1): 6.58% | Activation (%) ([2]; E3-8-1, 15625 nM, n = 2): 9.06% | Activation (%) ([2]; E3-8-1, 31250 nM, n = 1): 13.7% | Activation (%) ([2]; E3-8-1, 31250 nM, n = 2): 25.8% | Activation (%) ([2]; E3-8-1, 62500 nM, n = 1): 65.7% | Activation (%) ([2]; E3-8-1, 62500 nM, n = 2): 49.9% | Activation (%) ([2]; E3-8-1, 125000 nM, n = 1): 100.4% | Activation (%) ([2]; E3-8-1, 125000 nM, n = 2): 85.8% | Activation (%) ([2]; E3-8-1, 250000 nM, n = 1): 104.4% | Activation (%) ([2]; E3-8-1, 250000 nM, n = 2): 100.4% | Activation (%) ([2]; E3-8-1, 500000 nM, n = 1): 138.8% | Activation (%) ([2]; E3-8-1, 500000 nM, n = 2): 110.9% | Activation (%) ([2]; E3-8-1, 1000000 nM, n = 1): 151.8% | Activation (%) ([2]; E3-8-1, 1000000 nM, n = 2): 149.6% | Activation (%) ([2]; E3-8-1, 2000000 nM, n = 1): 191.4% | Activation (%) ([2]; E3-8-1, 2000000 nM, n = 2): 158.9% | EC50 ([2]; no activation in tested range reported as III, read-out: Activity (EC50 μM)): < 50 µM | EC50 ([2]; read-out: Activity (EC50 μM), value in parentheses): 37 µM
SMILES: CC[C@H]1[C@@H](O)[C@@H]2[C@H](CC[C@]3(C)[C@@H]([C@H](C)CCC(=O)O)CC[C@@H]23)[C@@]2(C)CC[C@@H](O)C[C@@H]12 [OCA, obeticholic acid, reference compound]
